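The compound was tested at five concentrations on cells cultured in 96-well plates, with a 48-hour exposure period. GI50 marks 50% less growth.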 The source made the active and inactive calls. Rule as the data show it: active = GI50 up to about 1.1 µM and inactive = higher.
Key:
Test in all cases: DTP human tumour cell line panel, 48 h
[1] = test system: HT-29
[2] = test system: NCI-H23
[3] = test system: SW-620
[4] = test system: OVCAR-5
[5] = test system: HCT-116
[6] = test system: DMS-114
[7] = test system: SN12C
[8] = test system: SK-OV-3
[9] = test system: SK-MEL-28
[10] = test system: SNB-19
[11] = test system: UO-31
[12] = test system: U-251
[13] = test system: 786-0
[14] = test system: UACC-257
[15] = test system: EKVX
[16] = test system: SK-MEL-5
[17] = test system: LOX IMVI
[18] = test system: CAKI-1
[19] = test system: NCI-H522
[20] = test system: DLD-1
[21] = test system: MOLT-4
[22] = test system: LXFL 529
[23] = test system: K562
[24] = test system: SNB-75
[25] = test system: Malme-3M
[26] = test system: OVCAR-4
[27] = test system: CCRF-CEM
[28] = test system: SF-268
[29] = test system: HOP-62
[30] = test system: NCI-H226
[31] = test system: SF-295
[32] = test system: A498
[33] = test system: SK-MEL-2
[34] = test system: SF-539
[35] = test system: UACC-62
[36] = test system: HOP-92
[37] = test system: TK-10
[38] = test system: DMS-273
[39] = test system: COLO 205
[40] = test system: KM-20L2
[41] = test system: HCT-15
[42] = test system: SNB-78
[43] = test system: M19-MEL
[44] = test system: OVCAR-8
[45] = test system: OVCAR-3
[46] = test system: HL-60
[47] = test system: XF498
[48] = test system: A549
[49] = test system: ACHN
[50] = test system: NCI-H460
[51] = test system: M14
[52] = test system: IGROV-1
[53] = test system: KM12
[54] = test system: RXF 393
[55] = test system: HCC 2998
[56] = test system: RPMI-8226
[57] = test system: SR

With N#C/C(=C1\SC(C(N)=O)=C(N)N1c1ccccc1)c1nc2ccccc2[nH]1 the GI50 [1] was 82.8 µM (inactive), the GI50 [2] was > 100 µM (inactive) and the GI50 [3] was > 100 µM (inactive). The GI50 [4] was > 100 µM (inactive), the GI50 [5] was > 100 µM (inactive) and the GI50 [6] was > 100 µM (inactive). The GI50 [7] was > 100 µM (inactive), the GI50 [8] was > 100 µM (inactive) and the GI50 [9] was > 100 µM (inactive). The GI50 [10] was > 100 µM (inactive), the GI50 [11] was 99.1 µM (inactive) and the GI50 [12] was > 100 µM (inactive). The GI50 [13] was > 100 µM (inactive), the GI50 [14] was > 100 µM (inactive) and the GI50 [15] was > 100 µM (inactive). The GI50 [16] was > 100 µM (inactive), the GI50 [17] was 32.2 µM (inactive) and the GI50 [18] was > 100 µM (inactive). For the same molecule, the GI50 [19] was > 100 µM (inactive), the GI50 [20] was > 100 µM (inactive) and the GI50 [21] was > 100 µM (inactive). For the same molecule, the GI50 [22] was > 100 µM (inactive), the GI50 [23] was > 100 µM (inactive) and the GI50 [24] was 48.2 µM (inactive). The GI50 [25] was > 100 µM (inactive), the GI50 [26] was > 100 µM (inactive) and the GI50 [27] was > 100 µM (inactive). For the same molecule, the GI50 [28] was > 100 µM (inactive), the GI50 [29] was > 100 µM (inactive) and the GI50 [30] was > 100 µM (inactive). The GI50 [31] was > 100 µM (inactive), the GI50 [32] was 42.6 µM (inactive) and the GI50 [33] was > 100 µM (inactive). For the same molecule, the GI50 [34] was 75.9 µM (inactive), the GI50 [35] was > 100 µM (inactive) and the GI50 [36] was 39.5 µM (inactive). For the same molecule, the GI50 [37] was 87.9 µM (inactive), the GI50 [38] was > 100 µM (inactive) and the GI50 [39] was 59 µM (inactive). For the same molecule, the GI50 [40] was > 100 µM (inactive), the GI50 [41] was > 100 µM and the GI50 [42] was 44.4 µM (inactive). For the same molecule, the GI50 [43] was > 100 µM (inactive), the GI50 [44] was > 100 µM (inactive) and the GI50 [45] was > 100 µM (inactive). The GI50 [46] was > 100 µM (inactive), the GI50 [47] was > 100 µM (inactive) and the GI50 [48] was > 100 µM (inactive). The GI50 [49] was > 100 µM (inactive), the GI50 [50] was > 100 µM (inactive) and the GI50 [51] was > 100 µM (inactive). The GI50 [52] was 37.3 µM (inactive).

For O=c1n(CC2CO2)c2ccccc2n1CC1CS1 (stereo not given), the GI50 [1] was > 10 µM (inactive), the GI50 [3] was > 100 µM (inactive) and the GI50 [53] was > 100 µM (inactive). For the same molecule, the GI50 [4] was > 100 µM (inactive), the GI50 [5] was 67.3 µM (inactive) and the GI50 [6] was 77.8 µM (inactive). For the same molecule, the GI50 [7] was > 100 µM (inactive), the GI50 [8] was > 10 µM (inactive) and the GI50 [9] was > 100 µM (inactive). The GI50 [10] was > 100 µM (inactive), the GI50 [11] was > 100 µM (inactive) and the GI50 [54] was 57 µM (inactive). The GI50 [55] was > 100 µM (inactive), the GI50 [15] was > 100 µM (inactive) and the GI50 [17] was 71 µM (inactive). For the same molecule, the GI50 [18] was 45.1 µM (inactive), the GI50 [19] was > 100 µM (inactive) and the GI50 [21] was 73.3 µM (inactive). The GI50 [22] was 88.9 µM (inactive), the GI50 [23] was > 100 µM (inactive) and the GI50 [25] was > 100 µM (inactive). The GI50 [26] was > 100 µM (inactive), the GI50 [27] was 63.2 µM (inactive) and the GI50 [28] was 91.8 µM (inactive). The GI50 [29] was > 100 µM (inactive), the GI50 [30] was > 100 µM (inactive) and the GI50 [31] was > 100 µM (inactive). For the same molecule, the GI50 [33] was > 100 µM (inactive), the GI50 [34] was > 100 µM (inactive) and the GI50 [35] was 49 µM (inactive). For the same molecule, the GI50 [36] was > 100 µM (inactive), the GI50 [37] was > 100 µM (inactive) and the GI50 [38] was > 100 µM (inactive). For the same molecule, the GI50 [39] was > 100 µM (inactive), the GI50 [40] was > 100 µM (inactive) and the GI50 [41] was > 100 µM. The GI50 [56] was 36.3 µM (inactive), the GI50 [43] was > 100 µM (inactive) and the GI50 [44] was > 100 µM (inactive). The GI50 [45] was 78.7 µM (inactive), the GI50 [46] was 11.1 µM (inactive) and the GI50 [47] was > 100 µM (inactive). For the same molecule, the GI50 [48] was > 100 µM (inactive), the GI50 [49] was > 100 µM (inactive) and the GI50 [50] was > 100 µM (inactive). For the same molecule, the GI50 [51] was > 100 µM (inactive), the GI50 [52] was > 100 µM (inactive) and the GI50 [57] was 44.7 µM (inactive).
